Patent US6369003B1, “Process and composition for soil improvement by reducing microbially formed ethylene in the soil” (BASF Aktiengesellschaft, priority 1994, dated 2002)

Tests used:
Wheat (Ralle) = test: Promotion of shoot growth of wheat, greenhouse; assay type: in vivo; conditions: applied by watering 10 days after sowing; 3 weeks after treatment
Procedure: (§1) In these tests various types of non-sterile soils were used. The cultivation of the plants was carried out under greenhouse or climatic chamber conditions. The active compounds according to the invention were applied uniformly distributed over the soil surface in an aqueous preparation after the emergence of the respective test plants. The supply of water for the plants was carrried out using the same technique, always paying attention to uniform moistness of the soil. In the case of the cultivation of legumes, defined amounts of species-specific Rhizobia were admixed to the soil. In some cases inoculation was also carried out by seed treatment.
(§2) Wheat (Ralle) and rape (Petranova) plants were cultured under greenhouse conditions in low N Limburgerhof soil in plastic pots (500 ml) and watered from above as required. The water content of the soil here was about 80% of the maximum water capacity. A few days after emergence the plants were thinned out to 40 plants per pot.
(§3) 10 days after sowing aqueous preparations of 2.3.1.3 were applied by watering to 8 pots per test series in each case. 16 pots in each case remained untreated. 3 weeks after treatment the fresh shoot weight of the plants was determined.

rape (Petranova) = test: Promotion of shoot growth of rape, greenhouse; assay type: in vivo; conditions: applied by watering 10 days after sowing; 3 weeks after treatment
Procedure: as §1, §2, §3

[1] = system: Soybean plants (Delta Pine 415); test: Soybeans test 3a: root nodules and total N, greenhouse; assay type: in vivo, Glycine max; conditions: after 3 weeks; for Nodules: untreated 49
Procedure: as §1
(§4) a) Soybean plants (Delta Pine 415) were cultivated under greenhouse conditions in low N Limburgerhof soil in plastic pots (500 ml) and watered from above as required. A few days after emergence the plants were thinned out to 5 plants per pot.
(§5) In 8 pots in each case per test member an aqueous active compound solution of 2.3.1.3 was applied by watering. 16 pots remained untreated in each case.

[2] = system: Soybeans of the variety Delta Pine 147; test: Field test: seed yield in soybeans; assay type: in vivo, Glycine max; conditions: untreated = 100 (29.9 dt/ha)
Procedure: The tests a) and b) were carried out under conditions like those in practice in 1993 on the field test site of BASF Corporation in Holly Springs, N.C., USA. This location is distinguished by a medium-heavy soil (sandy loam).
Soybeans of the variety Delta Pine 147 were used. Treatment was carried out to the following stages of development: 11 (1st trefoil formed), 13 (3rd trefoil formed) and 14 (5th trefoil formed). For treatment, the soil between the rows was sprayed with an aqueous preparation of the active compound 2.3.1.3. Immediately after the application, the active compound was washed into the soil by spray irrigation with 20 mm of water. The spray irrigation was also used to wash off active compound which had possibly reached the leaves.
Harvesting of the plants at full maturity gave the following results: […]

[3] = system: Bean plants (Small Seeded Bell); test: Field beans: root nodules, root and shoot biomass, greenhouse; assay type: in vivo, Vicia faba; conditions: 25 days after treatment; for Nodules: untreated 30.9; for Dry matter root: untreated 1090; for Dry matter shoot: untreated 2310
Procedure: as §1
Bean plants (Small Seeded Bell) were cultivated under greenhouse conditions in low N, sandy loam soil in plastic pots (750 ml) and watered from above as required. A few days after emergence the plants were thinned out to 3 plants per pot.
In 5 pots in each case 25 ml each of an aqueous preparation of one concentration of 2.3.1.3 were applied by watering. 5 pots remained untreated.
(§6) 25 days after treatment the following results were obtained: […]

Chick-pea plants (UC-27) = test: Chick-peas: root nodules, root and shoot biomass, greenhouse; assay type: in vivo, Cicer arietinum; conditions: 25 days after treatment; for Nodules: untreated 11.3; for Dry matter root: untreated 1100; for Dry matter shoot: untreated 2110
Procedure: as §1
Chick-pea plants (UC-27) were cultivated under greenhouse conditions in low N, sandy loam soil in plastic pots (750 ml) and watered from above as required. A few days after emergence the plants were thinned out to 3 plants per pot.
In 6 pots in each case 25 ml each of an aqueous preparation of one concentration of 2.3.1.3 were applied by watering. 6 pots remained untreated.
as §6

[4] = system: Soybean plants (Delta Pine 415); test: Soybeans test 3b: root nodules, greenhouse; assay type: in vivo, Glycine max; conditions: untreated 47
Procedure: as §1, §4, §5
b) Test procedure as in 3 a) active compound 2.3.1.3

**Q.** For `COC(=O)COC(=O)CON=C(C)C` [active compound 2.3.1.3], which “shoot growth (fresh shoot weight)” value (Wheat (Ralle)) is on record?
**A.** Its value is “shoot growth was promoted in nearly all cases”.

**Q.** What about the “shoot growth (fresh shoot weight)” value (rape (Petranova)) of the same compound?
**A.** Its value is “shoot growth was promoted in nearly all cases”.

**Q.** What about the “Total N (shoot + root)” value ([1]; 0.003 mg of a.s./pot) of the same compound?
**A.** The value was 109 % of control.

**Q.** What about the Nodules ([1]; 0.003 mg of a.s./pot) of the same compound?
**A.** The Nodules was 60 number/pot.

**Q.** And the “Total N (shoot + root)” value ([1]; 0.030 mg of a.s./pot)?
**A.** Its value is 108 % of control.

**Q.** What about the Nodules ([1]; 0.030 mg of a.s./pot) of the same compound?
**A.** Its Nodules is 62 number/pot.

**Q.** What about the “Total N (shoot + root)” value ([1]; 0.300 mg of a.s./pot) of the same compound?
**A.** The value was 118 % of control.

**Q.** And the Nodules ([1]; 0.300 mg of a.s./pot)?
**A.** Its Nodules is 73 number/pot.

**Q.** And the Bean yield ([2]; 10 g/ha of a.s., growth stage 11 during treatment)?
**A.** The Bean yield was 104%.

**Q.** And the Bean yield ([2]; 10 g/ha of a.s., growth stage 13 during treatment)?
**A.** The Bean yield was 116%.

**Q.** And the Bean yield ([2]; 10 g/ha of a.s., growth stage 14 during treatment)?
**A.** The Bean yield was 110%.

**Q.** What about the Bean yield ([2]; 100 g/ha of a.s., growth stage 11 during treatment) of the same compound?
**A.** Its Bean yield is 122%.

**Q.** And the Bean yield ([2]; 100 g/ha of a.s., growth stage 13 during treatment)?
**A.** Its Bean yield is 117%.

**Q.** And the Bean yield ([2]; 100 g/ha of a.s., growth stage 14 during treatment)?
**A.** Its Bean yield is 112%.

**Q.** What about the Bean yield ([2]; 1000 g/ha of a.s., growth stage 11 during treatment) of the same compound?
**A.** Its Bean yield is 110%.

**Q.** And the Bean yield ([2]; 1000 g/ha of a.s., growth stage 13 during treatment)?
**A.** Its Bean yield is 122%.

**Q.** What about the Bean yield ([2]; 1000 g/ha of a.s., growth stage 14 during treatment) of the same compound?
**A.** Its Bean yield is 108%.

**Q.** And the Nodules ([3]; 30 g of a.s./ha)?
**A.** Its Nodules is 34.3 number/plant.

**Q.** What about the Dry matter root ([3]; 30 g of a.s./ha) of the same compound?
**A.** The Dry matter root was 1380 mg/plant.

**Q.** And the Dry matter shoot ([3]; 30 g of a.s./ha)?
**A.** The Dry matter shoot was 2880 mg/plant.

**Q.** What about the Nodules ([3]; 300 g of a.s./ha) of the same compound?
**A.** Its Nodules is 50.7 number/plant.

**Q.** And the Dry matter root ([3]; 300 g of a.s./ha)?
**A.** Its Dry matter root is 1470 mg/plant.

**Q.** What about the Dry matter shoot ([3]; 300 g of a.s./ha) of the same compound?
**A.** The Dry matter shoot was 3940 mg/plant.

**Q.** And the Nodules ([3]; 3000 g of a.s./ha)?
**A.** The Nodules was 48.2 number/plant.

**Q.** What about the Dry matter root ([3]; 3000 g of a.s./ha) of the same compound?
**A.** The Dry matter root was 960 mg/plant.

**Q.** And the Dry matter shoot ([3]; 3000 g of a.s./ha)?
**A.** Its Dry matter shoot is 2450 mg/plant.

**Q.** What about the Nodules (Chick-pea plants (UC-27); 30 g of a.s./ha) of the same compound?
**A.** The Nodules was 31.4 number/plant.

**Q.** And the Dry matter root (Chick-pea plants (UC-27); 30 g of a.s./ha)?
**A.** Its Dry matter root is 1280 mg/plant.

**Q.** And the Dry matter shoot (Chick-pea plants (UC-27); 30 g of a.s./ha)?
**A.** The Dry matter shoot was 2690 mg/plant.

**Q.** And the Nodules (Chick-pea plants (UC-27); 300 g of a.s./ha)?
**A.** Its Nodules is 44.0 number/plant.

**Q.** And the Dry matter root (Chick-pea plants (UC-27); 300 g of a.s./ha)?
**A.** Its Dry matter root is 1520 mg/plant.

**Q.** What about the Dry matter shoot (Chick-pea plants (UC-27); 300 g of a.s./ha) of the same compound?
**A.** The Dry matter shoot was 3350 mg/plant.

**Q.** What about the Nodules (Chick-pea plants (UC-27); 3000 g of a.s./ha) of the same compound?
**A.** Its Nodules is 6.2 number/plant.

**Q.** What about the Dry matter root (Chick-pea plants (UC-27); 3000 g of a.s./ha) of the same compound?
**A.** Its Dry matter root is 1150 mg/plant.

**Q.** And the Dry matter shoot (Chick-pea plants (UC-27); 3000 g of a.s./ha)?
**A.** The Dry matter shoot was 4110 mg/plant.

**Q.** And the Nodules ([4]; 0.003 mg of a.s./pot; procedure as in 3 a))?
**A.** The Nodules was 72 number/pot.

**Q.** What about the Nodules ([4]; 0.030 mg of a.s./pot; procedure as in 3 a)) of the same compound?
**A.** The Nodules was 83 number/pot.

**Q.** What about the Nodules ([4]; 0.300 mg of a.s./pot; procedure as in 3 a)) of the same compound?
**A.** Its Nodules is 69 number/pot.
